Reference: patent publication US7230104B2, “Fungicidal 5-phenyl substituted 2-(cyanoamino) pyrimidines” (priority 2000, dated 2007)
In brackets after ≈: the same amount, converted by molar mass.

Legend:
[1] = test system: Rhizoctonia solani; conditions: 10 ppm; 3–7 days of incubation
Procedure: After 3–7 days of incubation, inhibition of mycelial growth is recorded using the following scale: The data obtained are shown in Table VI.

[2] = test system: Pyricularia Oryzae; format: cell-based; conditions: lowest concentration causing total inhibition of mycelial growth; 6–12 days incubation at 18 to 25° C.; visual inspection
[3] = test system: Venturia inaequalis; test: Evaluation of in vivo fungicidal activity, Apple Scab (AS); conditions: plants sprayed with 200 ppm test solution, inoculated the same day
[4] = Evaluation of in vivo fungicidal activity, Grape downy mildew (GDM); parameters: species or system Uniclnula necator; conditions: plants sprayed with 200 ppm test solution, inoculated the same day
[5] = test system: Pyricularia grisea sp. oryzae; format: in vivo; conditions: Rice Blast; plants sprayed with 200 ppm test solution, inoculated the same day

| SMILES | Rhizoctonia solani (Rice sheath blight) inhibition of mycelial growth rating [1] | MIC [2] [µg/mL] | AS disease control rating [3] | GDM disease control rating [4] | RB disease control rating [5] |
| --- | --- | --- | --- | --- | --- |
| CC(N(C)c1nc(N(C)C#N)nc(Cl)c1-c1c(F)cc(F)cc1F)C(F)(F)F (centres unmarked) [Example 8] | 7 |  |  |  |  |
| CC(Nc1nc(N(C)C#N)nc(Cl)c1-c1c(F)cc(F)cc1F)C(F)(F)F (centres unmarked) [Example 1, 2-(N-cyano-N-methylamino)-4-chloro-5-(2,4,6-trifluorophenul)-6-(1,1,1-trifluoroprop-2-ylamino)-pyrimidine] | 7 |  |  |  |  |
| CC1CCN(c2nc(N(C)C#N)nc(Cl)c2-c2c(F)cccc2Cl)CC1 [Example 5] | 0 | 25 (≈ 63.4 µM) | 9 (100) | 0 (0) | 4 (45–59) |
| CC(C)Nc1nc(N(C)C#N)nc(Cl)c1-c1c(F)cc(F)cc1F [Example 3] |  | 3.13 (≈ 8.8 µM) | 7 (90–95) | 7 (90–95) | 5 (60–74) |
| CCC(C)Nc1nc(N(C)C#N)nc(Cl)c1-c1c(F)cccc1Cl (centres unmarked) [Example 6] | 0 | 6.25 (≈ 17 µM) | 9 (100) | 3 (30–44) | 6 (75–89) |
| CC1CCN(c2nc(N(C)C#N)nc(Cl)c2-c2c(F)cc(F)cc2F)CC1 [Example 7] | 0 | 100 (≈ 253 µM) |  |  |  |
| CCCCN(C#N)c1nc(Cl)c(-c2c(F)cc(F)cc2F)c(NC(C)C(F)(F)F)n1 (centres unmarked) [Example 2] |  |  | 0 (0) | 0 (0) | 0 (0) |
| CN(C#N)c1nc(Cl)c(-c2c(F)ccc(F)c2F)c(NC2CCCC2)n1 [Example 4] | 7 | >100 | 5 (60–74) | 3 (30–44) | 3 (30–44) |
